# Test results: patent US11357817B2, “Immunoproteasome inhibitor” (The Regents of the University of California, priority 2017, dated 2022)
# How the values were obtained:
# [1] = test system: HepG2 cells; assay: HepG2 cytotoxicity assay; format: cell-based; details: Homo sapiens
# Protocol: The liver-stage and HepG2 toxicity assays were performed as previously reported (35). Briefly, HepG2-A16-CD81EGFP, human hepatocarcinoma HepG2 cells stably transformed to express the tetraspanin CD81 receptor (36, 37) and thus susceptible to P. berghei infection, were cultured at 37° C. in 5% CO2 in DMEM (Life Technologies, Calif.) supplemented with 10% FBS, 0.29 mg/ml glutamine, 100 unit penicillin and 100 μg/ml streptomycin. For both the P. berghei-luciferase and HepG2 cytotoxicity assays, 3×10^3 of the HepG2-A16-CD81EGFP cells in 5 μl of assay medium (DMEM without Phenol Red (Life Technologies, Calif.), 5% FBS, and 5× Pen Strep Glutamine (Life Technologies, Calif.)) at concentration 6×10^5 cells/ml were seeded in 1536-well plates (Greiner BioOne white solid bottom custom GNF mold) 20-26 hours prior to the actual infection. 18 hours prior to infection, 50 nl of compound in DMSO (0.5% final DMSO concentration per well) were transferred with Acoustic Transfer System (ATS) (Biosero) into the assay plates. Atovaquone (12-point serial dilution starting at 10 μM) and Puromycin (12-point serial dilution starting at 10 μM) were used as positive controls for Pb. liver stage assay and HepG2 cytotoxicity respectively. 0.5% DMSO was used as negative control for the both assays.
# An. stephensi mosquitoes, infected with P. berghei-luciferase, were provided by the New York University Insectary. P. berghei-luciferase sporozoites were freshly dissected from the infected A. stephensi mosquito salivary glands, filtered twice through a 20 μm nylon net filter using Steriflip Vacuum-Driven Filtration System (Millipore), counted in a hemocytometer, and then adjusted to final concentration 200 sporozoites per μl in the assay media. […] The HepG2-A16-CD81EGFP cell designated for toxicity studies were left uninfected, with 5 ul of additional assay media added to each well to maintain equal concentrations of compounds with P. berghei-luciferase infected plates. After incubation at 37° C. for 48 hours the exoerythrocytic growth and HepG2-A16-CD81EGFP cell viability were quantified by a bioluminescence measurement.
# The HepG2 cytotoxicity was assessed by removing the media through an inverted spin of the plates at 150 g for 30 s and addition of 2 μL of CellTiterGlo reagent (Promega diluted 1:2 with deionized water) per well using the MicroFlo liquid handler (BioTek). Immediately after addition of the luminescence reagent, the plates were vortexed for 10 s and read with an EnVision Multilabel reader (PerkinElmer). IC50 values were obtained as above.
# [2] = test system: 20S Plasmodium proteasome (Pf20S) β5 subunit; assay: Proteasome activity assay, Pf20S β5 (suc-LLVY-AMC); format: biochemical, Plasmodium falciparum
# Protocol: Asynchronous P. falciparum cultures were grown up to 4-5% parasitemia, in 300 mL of RPMI media at 5.0% hematocrit. Cultures were then transferred to 50 mL conical tubes, pelleted via centrifugation at 800 g for 5 min, and washed once with 1×PBS and pelleted again as above. The PBS was removed and lysis buffer (0.15% saponin in PBS) was added on ice in 10 pellet volumes. Upon lysis of red blood cells, indicated by a clear red supernatant, the lysed cultures were centrifuged at 3200×g for 12 minutes at 4° C. The supernatant was removed by aspiration and the cells were washed twice using chilled PBS in microcentrifuge tubes. The cell pellets were then incubated on ice for 1 hour with occasional vortexing in a buffer consisting of 20 mM Tris-HCl pH 7.5, 5 mM MgCl2, 1 mM DTT, 100 μM E-64 and 1 mM AEBSF. This sample was then subjected to 3 rounds of freezing (−80° C.) and thawing (37° C.) and centrifugation at 6000×g for 10 min. The supernatant containing soluble P. falciparum protein was quantified by the BCA method (Pierce).
# P. falciparum proteasome was enriched by two-chromatographic steps reported previously (10). In brief, 10 mg of P. falciparum protein was concentrated to 1 mL using a 100 kDa centrifugal filter unit (Amicon) and loaded onto a 5 mL anion exchange HiTrap DEAE FF column (GE Healthcare). […] The AMC fluorophore release was monitored at Ex 340/Em 465 nm at 24° C. using a Synergy HTX multi-mode reader (Biotek). […] Proteins were eluted using 20 mM Tris-HCl pH 7.5, 100 mM NaCl, 10% glycerol and 1 mL fractions were collected, evaluated for protease activity and pooled.
# To estimate the concentration of Pf20S in the final pooled sample, protein was denatured and loaded into a 4-12% Bis-Tris Plus gel (Thermo Fisher Scientific) beside 60 to 100 ng of human constitutive proteasome (Boston Biochem). […] For inhibition assays, inhibitor and substrate were added simultaneously to the enzyme and the rate of AMC release was determined from 60 to 120 minutes and compared to a DMSO control.
# [3] = biological target: T1, c20S (Homo sapiens, UniProt P20618+P28074); assay: Calculation of inhibition constants (inactivation kinetics), c20S; format: biochemical
# T1 construct: purchased Boston Biochem
# Protocol: (§1) The rate of AMC release was calculated in the presence of serial dilution of each inhibitor. The rate of product formation were calculated at 30 min intervals for 4 hours, and normalized to activity DMSO control to calculate inactivation curves. Kobs values for each inhibitor concentration were calculated from inactivation curves, and inhibition constants KI and kinact were calculated by non-linear regression of Kobs and inhibitor concentration using GraphPad Prism 6 software.
# [4] = biological target: Pf20S (Plasmodium falciparum, UniProt A0A5K1K7U1+Q8IJT1); assay: Calculation of inhibition constants (inactivation kinetics), Pf20S; format: biochemical
# Sequence of Pf20S (A0A5K1K7U1 entry or part of it): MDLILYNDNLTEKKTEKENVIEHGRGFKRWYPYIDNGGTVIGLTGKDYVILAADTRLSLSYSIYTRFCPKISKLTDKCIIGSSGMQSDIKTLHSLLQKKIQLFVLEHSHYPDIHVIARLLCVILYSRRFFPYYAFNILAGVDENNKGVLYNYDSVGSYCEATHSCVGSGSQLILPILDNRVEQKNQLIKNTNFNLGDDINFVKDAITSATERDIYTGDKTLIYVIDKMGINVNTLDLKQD
# Sequence of Pf20S (Q8IJT1 entry or part of it): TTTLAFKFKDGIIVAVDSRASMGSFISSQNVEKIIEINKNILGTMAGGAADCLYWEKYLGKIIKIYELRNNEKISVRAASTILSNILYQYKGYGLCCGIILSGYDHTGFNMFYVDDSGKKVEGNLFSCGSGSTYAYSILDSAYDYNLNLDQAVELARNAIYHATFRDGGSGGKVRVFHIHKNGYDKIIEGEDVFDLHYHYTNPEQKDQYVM
# Protocol: as §1
structure (smiles),measurement,setting,value
"CCCCCC(=O)N[C@@H](C(=O)N[C@@H](CCCC)C(=O)N[C@@H](CC(C)C)C(=O)[C@@]1(C)CO1)C(C)C [Analog 18, (S)-2-((R)-2-hexanamido-3-methylbutanamido)-N—((S)-4-methyl-1-((R)-2-methyloxiran-2-yl)-1-oxopentan-2-yl)hexanamide]",IC50,[1],1240 ± 274 nM
same,decrease in β5 activity,"[2]; 450 nM compound, proteasome not named",45%
same,potency towards Pf20S compared with c20S,"[2]; β5 activity, 50 nM compound",more potent towards Pf20S than c20S
same,Ki,[3]; c20S,39200 nM
same,loss in potency to the human c20S proteasome,"[3]; kinact/Ki, 18 versus 1",100 fold
same,Ki,[4]; Pf20S,372 nM
same,reduction in potency to the Pf20S proteasome,"[4]; kinact/Ki, 18 versus 1",10 fold
